Values joined by “and” are separate entries in the source; they are usually repeats but may differ in a detail not shown here. Identical values can stand only once.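 Grown in 96-well plates, cells were treated for 48 hours with each compound at five concentrations. Insufficient inhibition: endpoint recorded as highest concentration tested. GI50 marks 50% less growth. TGI is the concentration that stops growth completely.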

55 compounds from PubChem BioAssay (NCI) can be followed below.

The subject of the assay is MDA-MB-468 breast. The experiment in a line: NCI anticancer screen, dose series, 48 h.
`COc1ccc(-c2cc(=O)c3c(OC)c4ccoc4c(/C=C/C=O)c3o2)cc1`: the GI50 is 3.58 µM and the TGI amounted to 14.4 µM.

Take `O=S(=O)(NCCNc1nccc(-c2c(-c3ccc(F)cc3)nc3sccn23)n1)c1ccc(O)cc1`: the GI50 was 3.37 µM and the TGI is 48.2 µM.

As to `c1cc[n+](Cc2c3ccccc3cc3c2ccc2ccccc23)cc1`, the GI50 is 0.426 µM and the TGI was determined as 2.68 µM.

Consider `CN1C(=O)C(N=Nc2ccc([N+](=O)[O-])cc2)SC1=S` (stereo not drawn), for which the GI50 is 4.33 µM and 9.92 µM; the TGI is 30.6 µM and 56.6 µM.

`Cn1cc(-c2csc(-c3ccccc3)n2)c2cccnc21`: the GI50 is 14.2 µM and the TGI stood at 48.4 µM.

As for `O=C1/C(=C/c2ccc(Cl)cc2)CN(Cc2cn(CCCNc3ccnc4cc(Cl)ccc34)nn2)C/C1=C\c1ccc(Cl)cc1`, the GI50 was 1.4 µM and the TGI came out at 3.5 µM.

On to `COc1ccc(-c2nc3sccn3c2-c2ccnc(NCCNS(=O)(=O)c3ccc(C(F)(F)F)cc3)n2)cc1`, for which the GI50 was 1.19 µM and the TGI was found to be 7.62 µM.

As to `CC(C)c1cnc(-c2cc(Cl)ccc2F)cc1Nc1ccncc1C(=O)NC(CO)CO`, the GI50 is 8.35 µM and the TGI was 32.7 µM.

As to `COc1cc(C)c(-c2ccc(OC)c(=O)cc2C)c(OC)c1OC`, the TGI is > 100 µM.

For `CS(=O)(=O)N1CCC(Nc2ncc(C(=O)c3c(F)cccc3F)c(N)n2)CC1`, the GI50 is 12.4 µM and the TGI is > 25 µM.

As to `Cn1c2c(c3ccccc31)CCN1C[C@@H]3CCCC[C@H]3C[C@@H]21`, the GI50 is 1.77 µM and the TGI amounted to 8.73 µM.

On to `Nc1c(C(=O)Nc2cccc(Cl)c2)sc2nc3c(cc12)C(O)CCC3` (stereo not drawn), for which the GI50 was 0.257 µM and the TGI stood at 15.2 µM.

On to `Nc1nc2ccc(CNc3ccc(C(=O)NC(CC(=O)O)C(=O)O)cc3)cc2c(=O)[nH]1` (stereo not drawn), for which the GI50 is 9.09 µM and the TGI is > 100 µM.

As to `CC[C@]12C=CCN3CC[C@@]4(c5ccc(OC)cc5N(C)[C@H]4[C@@](O)(C(=O)OC)[C@@H]1OC(=O)CCC(=O)O[C@H]1CC[C@H]4[C@@H]5CCC6=CC(=O)CC[C@@H]6[C@H]5CC[C@]14C)[C@@H]32`, the GI50 was 1.42 µM and the TGI came out at 5.9 µM.

With `O=C(O)c1ccc(CSc2nc3ccccc3[nH]2)cc1`, the GI50 was > 100 µM and the TGI is > 100 µM.

Turning to `CC(C)n1cc(-c2ccc3c(c2)N(C)CC3)c2c(NS(=O)(=O)c3ccn(C)n3)ccnc21`, the GI50 is 41.1 µM and the TGI is > 100 µM.

In the case of `NS(=O)(=O)c1ccc(N=Nc2c(O)[nH]c3ccc(C(=O)NCCCn4ccnc4)cc23)cc1`, the GI50 was > 25 µM and the TGI was > 25 µM.

Consider `C[C@@]12CC[C@@H](O)C[C@@H]1CC[C@H]1[C@H]2CC[C@@]2(C)[C@H](c3ccc(=O)oc3)CC[C@@]12O`, for which the GI50 was 0.0278 µM and the TGI turned out to be 0.0811 µM.

For `CC(C)[C@@]12C[C@@H](OC(=O)COC(=O)c3ccccc3)[C@@](C)(O1)[C@@H]1CC[C@@H](C)[C@H]1[C@@H]2OC(=O)/C=C/c1ccccc1`, the GI50 is > 81.2 µM and the TGI is > 100 µM.

For `Cc1c(O)cccc1C(=O)N[C@@H](CSc1ccccc1)[C@H](O)CN1C[C@H]2CCCC[C@H]2C[C@H]1C(=O)NC(C)(C)C`, the GI50 is 3.89 µM and the TGI was determined as 15.2 µM.

On to `Nc1nc(N)c2cc(S(=O)(=O)c3ccc4ccccc4c3)ccc2n1`, for which the GI50 is 2.43 µM and the TGI is > 100 µM.

As for `C#C[C@]1(O)CC[C@H]2[C@@H]3CC=C4c5sc(-c6ccc(C)cc6)nc5CC[C@]4(C)[C@H]3CC[C@@]21C`, the GI50 was > 100 µM and the TGI is > 100 µM.

On to `Cc1nc2ccc(-n3ncc(C(=O)c4cc5ccccc5[nH]4)c3N)cc2[nH]1`, for which the GI50 is 12.5 µM and the TGI was 43.2 µM.

Regarding `COc1cc(/C=C2\CCC/C(=C\c3cc(CN4CCCC4)c(O)c(OC)c3)C2=O)cc(CN2CCCC2)c1O`, the GI50 is 1.7 µM and the TGI was determined as 4.07 µM.

Turning to `Clc1nc(Cl)c2ncn(-c3ccccc3)c2n1`, the GI50 was 2.71 µM and the TGI came out at 8.39 µM.

For `Cc1[nH]c(C(=O)Nc2cccc(OC3CCNCC3)c2)c(Cl)c1Cl`, the GI50 was 1.87 µM and the TGI was found to be 3.68 µM.

Turning to `CCN1CCN(Cc2ccc(Nc3ncc(F)c(-c4cc(F)c5nc(C)n(C(C)C)c5c4)n3)nc2)CC1`, the GI50 is 6.95 µM and the TGI amounted to 14 µM.

Regarding `Cc1ccc(C2=NN(c3ccc(S(=O)(=O)NC(=O)NCc4ccccc4)cc3)C(c3ccc(N(C)C)cc3)C2)c(C)c1` (stereo not drawn), the GI50 was 2.36 µM and the TGI is 6.11 µM.

As for `NC(=O)c1c[nH]c2ncnc(N)c12`, the GI50 is 18.8 µM and the TGI is 90.1 µM.

As for `CSC1=CC(=O)c2ccccc2C1=O`, the GI50 was 0.26 µM and the TGI was 1.09 µM.

As for `ClC(Cl)c1nc(-c2ccco2)n2nc(-c3ccccc3)cc2n1`, the GI50 is 0.322 µM and the TGI was 1.15 µM.

For `Cc1ccc(NC(=S)NNC(=S)Nc2ccc(C)cc2)cc1`, the GI50 is 2.82 µM and the TGI was found to be 7.58 µM.

As for `CCc1ccc(Oc2c(-c3ccc(OCCc4cccc(C(F)(F)F)c4)cc3O)n[nH]c2C(F)(F)F)cc1`, the GI50 was 1.87 µM and the TGI was 7.96 µM.

Turning to `CCN1C(=O)/C(=c2\sc3n(c2=O)C2C(NN=3)N(CC)C(=O)N2CC)c2ccccc21` (stereo not drawn), the GI50 was 0.336 µM and the TGI was 8.33 µM.

Take `CC(=O)Oc1ccc(C2OC(c3ccc4ccccc4c3OC(C)=O)=NN2C(C)=O)c(OC(C)=O)c1` (stereo not drawn): the GI50 is 0.401 µM and the TGI was 3.22 µM.

On to `O=C(/C=C(/C=C/c1cccc2[nH]ccc12)OB(F)F)/C=C/c1cccc2[nH]ccc12`, for which the GI50 was 0.473 µM and the TGI was 3.12 µM.

Consider `CCN1CCN(Cc2ccc(NC(=O)Nc3nc(-c4cc(OC)c(OC)c(OC)c4)cs3)cc2C(F)(F)F)CC1`, for which the GI50 is 1.43 µM and the TGI is 3.03 µM.

As to `COc1ccccc1CNCCCN1C(=O)c2ccc3c4c(ccc(c24)C1=O)C(=O)N(CCCNCCCCNCCCN)C3=O`, the GI50 was 0.131 µM and the TGI worked out at 0.273 µM.

`COc1cccc2nc(Nc3cccc(NC(=O)c4ccc(N5CCN(C)CC5)c(C(F)(F)F)c4)c3)ccc12`: the GI50 is 1.11 µM and the TGI came out at 3.65 µM.

Consider `CS(=O)(=O)c1nccc(-c2c(-c3ccc(F)c(OCCc4ccccc4)c3)nc3sccn23)n1`, for which the GI50 is 2.57 µM and the TGI stood at 7.36 µM.

On to `CC1(C)N=C(N)N=C(N)N1c1ccc(OCC(=O)Nc2ccc(S(=O)(=O)F)cc2Cl)c(Cl)c1`, for which the GI50 was 1.84 µM and the TGI was > 100 µM.

In the case of `COc1ccc2[nH]c(C(=O)OCc3ccc4c(Br)cc(Br)c(O)c4n3)cc2c1`, the GI50 is 0.822 µM and the TGI turned out to be 2.46 µM.

Consider `CS(=O)(=O)Nc1cc(-c2ccc3ncc(C#N)c(Nc4ccc(F)c(Cl)c4)c3c2)cnc1Cl`, for which the GI50 is 0.0676 µM and the TGI was found to be 0.396 µM.

Consider `CC(C)C[C@H](NC(=O)[C@@H](Cc1ccccc1)n1ccc(Nc2ccccc2)cc1=O)B(O)O`, for which the GI50 was 0.236 µM and the TGI was determined as 1.29 µM.

Regarding `COc1ccc(OC)c(C2=C(c3cn(C)c4ccccc34)C(=O)NC2=O)c1`, the GI50 was > 25 µM and the TGI was > 25 µM.

Regarding `CC1(C)CC[C@]23CC[C@]4(C)[C@H](CC[C@@H]5[C@@]6(C)CCCNC(C)(C)[C@@H]6CC[C@]54C)[C@H]2[C@H]1OC3`, the GI50 was 1.61 µM and the TGI is 3.45 µM.

Regarding `O=C1c2ccccc2C(=O)c2c1oc1cc(O)c(Cl)cc21`, the GI50 is 1.13 µM and the TGI stood at 7.23 µM.

For the compound `COc1ccc(N=Nc2ccc(O)c(=O)cc2)cc1`, the GI50 was 2.61 µM and the TGI is 18.7 µM.

In the case of `C[n+]1cccc(NC(=O)c2ccc3ccc4ccc(C(=O)Nc5ccc[n+](C)c5)nc4c3n2)c1`, the GI50 was 0.252 µM and the TGI was 1.29 µM.

`CCOc1cc(Cl)c(C(C)NC(=O)c2cccc(OC)c2)cc1OCC` (stereo not drawn): the GI50 is 3.38 µM and the TGI amounted to 64.6 µM.

In the case of `CC[C@]12C=CCN3CC[C@]4(C(=C(C(=O)OC)C1)Nc1cc5c(cc14)[C@@H]1[C@H](O5)[C@@H](O)[C@@]4(CC)CC(C(=O)OC)=C5Nc6ccccc6[C@@]56CCN1[C@@H]46)[C@@H]32`, the GI50 was 0.147 µM and 0.183 µM; the TGI was 1.54 µM and 1.62 µM.

Turning to `COc1cc2c(Nc3ccc(-c4ccc(N)cc4)cc3)ncnc2c(OC)c1OC`, the GI50 was 11.2 µM and the TGI was found to be 49 µM.

Turning to `C=C(C(=O)c1ccccc1)C(NC(C)(C)C)c1ccccc1` (stereo not drawn), the GI50 is 0.566 µM and the TGI stood at 1.96 µM.

For `COc1cccc(C(=O)NNc2nc(Cl)nc(N3CCN(C(c4ccccc4)c4ccccc4)CC3)n2)c1`, the GI50 was 2.4 µM and the TGI stood at 8.11 µM.

For `CCCCCCCCCCCCCCCC(=O)NS(=O)(=O)OC[C@H]1O[C@@H](n2cnc3c(N)ncnc32)[C@H](O)[C@@H]1O`, the GI50 is < 0.0328 µM.
